Measurements as given in ChEMBL document CHEMBL1201862, “PubChem BioAssay data set” (2004).
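48-hour exposure; five concentrations; linearly interpolated endpoints. Here, GI50 denotes the concentration required for 50% inhibition of growth.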 Active and inactive are the calls of the source. Rule as the data show it: active = GI50 up to about 1.1 µM and inactive = higher.

Assays:
Assay in all cases: growth of human tumour cells (NCI), 48 h
NCI-H23 = test system: NCI-H23
Malme-3M = test system: Malme-3M
UO-31 = test system: UO-31
M14 = test system: M14
EKVX = test system: EKVX
ACHN = test system: ACHN
BT-549 = test system: BT-549
RXF 393 = test system: RXF 393
RPMI-8226 = test system: RPMI-8226
SK-OV-3 = test system: SK-OV-3
MDA-MB-231 = test system: MDA-MB-231
NCI-H226 = test system: NCI-H226
UACC-62 = test system: UACC-62
OVCAR-8 = test system: OVCAR-8
IGROV-1 = test system: IGROV-1
CCRF-CEM = test system: CCRF-CEM
786-0 = test system: 786-0
NCI/ADR-RES = test system: NCI/ADR-RES
SNB-75 = test system: SNB-75
HT-29 = test system: HT-29
MOLT-4 = test system: MOLT-4
HCT-116 = test system: HCT-116
HCT-15 = test system: HCT-15
COLO 205 = test system: COLO 205
HOP-92 = test system: HOP-92
HCC 2998 = test system: HCC 2998
TK-10 = test system: TK-10
T47D = test system: T47D
DU-145 = test system: DU-145
SNB-19 = test system: SNB-19
SF-295 = test system: SF-295
OVCAR-3 = test system: OVCAR-3
A549 = test system: A549
PC-3 = test system: PC-3
UACC-257 = test system: UACC-257
SK-MEL-2 = test system: SK-MEL-2
HOP-62 = test system: HOP-62
NCI-H522 = test system: NCI-H522
KM12 = test system: KM12
OVCAR-5 = test system: OVCAR-5
LOX IMVI = test system: LOX IMVI
MDA-N = test system: MDA-N
SF-268 = test system: SF-268
SF-539 = test system: SF-539
U-251 = test system: U-251
SK-MEL-5 = test system: SK-MEL-5
SK-MEL-28 = test system: SK-MEL-28
MDA-MB-435 = test system: MDA-MB-435
CAKI-1 = test system: CAKI-1
Hs-578T = test system: Hs-578T
A498 = test system: A498
MCF7 = test system: MCF7
OVCAR-4 = test system: OVCAR-4
SW-620 = test system: SW-620

In the case of N#Cc1sc2nc3ccccc3n2c1N, the GI50 (NCI-H23) is reported as 52.5 µM (inactive), the GI50 (Malme-3M) is reported as > 100 µM (inactive) and the GI50 (UO-31) is reported as 36.6 µM (inactive). For the same compound, the GI50 (M14) was > 100 µM (inactive), the GI50 (EKVX) was 85.1 µM (inactive) and the GI50 (ACHN) was 92.3 µM (inactive). For the same compound, the GI50 (BT-549) was 49.2 µM (inactive), the GI50 (RXF 393) was 17.6 µM (inactive) and the GI50 (RPMI-8226) was 84.3 µM (inactive). For the same compound, the GI50 (SK-OV-3) was 40.1 µM (inactive), the GI50 (MDA-MB-231) was 76.4 µM (inactive) and the GI50 (NCI-H226) was 95.9 µM (inactive). The GI50 (UACC-62) was 62.4 µM (inactive), the GI50 (OVCAR-8) was 78.2 µM (inactive) and the GI50 (IGROV-1) was 58.7 µM (inactive). For the same compound, the GI50 (CCRF-CEM) was 29.3 µM (inactive), the GI50 (786-0) was > 100 µM (inactive) and the GI50 (NCI/ADR-RES) was > 100 µM (inactive). The GI50 (SNB-75) was 29.7 µM (inactive), the GI50 (HT-29) was 75 µM (inactive) and the GI50 (MOLT-4) was 31.4 µM (inactive). For the same compound, the GI50 (HCT-116) was > 100 µM (inactive), the GI50 (HCT-15) was 65.5 µM and the GI50 (COLO 205) was 78.7 µM (inactive). The GI50 (HOP-92) was > 100 µM (inactive), the GI50 (HCC 2998) was 36.2 µM (inactive) and the GI50 (TK-10) was 14.9 µM (inactive). The GI50 (T47D) was 89.7 µM (inactive), the GI50 (DU-145) was 94.8 µM (inactive) and the GI50 (SNB-19) was > 100 µM (inactive). For the same compound, the GI50 (SF-295) was > 100 µM (inactive), the GI50 (OVCAR-3) was 68.7 µM (inactive) and the GI50 (A549) was 47.4 µM (inactive). The GI50 (PC-3) was 73.6 µM (inactive), the GI50 (UACC-257) was > 100 µM (inactive) and the GI50 (SK-MEL-2) was 26.1 µM (inactive). For the same compound, the GI50 (HOP-62) was 84.5 µM (inactive), the GI50 (NCI-H522) was > 100 µM (inactive) and the GI50 (KM12) was 0.344 µM (active). For the same compound, the GI50 (OVCAR-5) was > 100 µM (inactive), the GI50 (LOX IMVI) was 40.8 µM (inactive) and the GI50 (MDA-N) was > 100 µM (inactive). For the same compound, the GI50 (SF-268) was 60.3 µM (inactive), the GI50 (SF-539) was 55.3 µM (inactive) and the GI50 (U-251) was 83.9 µM (inactive). For the same compound, the GI50 (SK-MEL-5) was 95.7 µM (inactive), the GI50 (SK-MEL-28) was > 100 µM (inactive) and the GI50 (MDA-MB-435) was > 100 µM (inactive). The GI50 (CAKI-1) was 37.2 µM (inactive), the GI50 (Hs-578T) was 36.2 µM (inactive) and the GI50 (A498) was 39.4 µM (inactive). For the same compound, the GI50 (MCF7) was 84.5 µM (inactive), the GI50 (OVCAR-4) was > 100 µM (inactive) and the GI50 (SW-620) was 92.5 µM (inactive).
